# Paper PMC12097015, “Development of MDM2‐Targeting PROTAC for Advancing Bone Regeneration” (Advanced Science, 2025)
# Tests used:
# IKZF1 = target: T1, IKZF1 (Homo sapiens, UniProt Q13422); experiment: Neo-substrate off-target immunoblot in hBMSCs; assay type: cell-based; conditions: 10 µM, conditions with MDM2 degradation ≈70%
# T1 construct: endogenous in cells; host or cells: hBMSCs
# Method: (§1) After discarding the medium and washing the cells twice with cold dPBS, the cells were collected using a scraper and lysed using RIPA buffer (GenDEPOT, R4200‐010) containing protease and phosphatase inhibitors (GenDEPOT, P3200‐001). The collected samples were centrifuged at 13 200 rpm for 10 min at 4 °C, and the supernatant containing total protein was collected. SDS‐PAGE gels (10–12%) were prepared, and protein samples were mixed with 5X loading buffer containing reducing agent (Biosesang, S2002) and heated at 98 °C for 5 min. Equal amounts of protein samples were loaded onto a gel, separated by electrophoresis, and transferred onto nitrocellulose membranes using a Dry Transfer Stacks Kit (Invitrogen, IB23001). The membrane was blocked with 5% nonfat milk in 1X TBST for 1 h at room temperature to prevent nonspecific binding. The membranes were incubated with primary antibodies specific to the target proteins overnight at 4 °C with gentle shaking. The next day, the membrane was washed three times with TBST at 10 min intervals to remove unbound primary antibodies. The membranes were incubated with secondary antibodies (anti‐rabbit and anti‐mouse) conjugated to horseradish peroxidase (HRP) for 1 h at room temperature. The membrane was washed three times with 1X TBST at 10 min intervals to remove unbound secondary antibodies. […]
# p53 = p53 level by western blot in hBMSCs; assay type: cell-based, human; conditions: 0.1 µM to 10 µM
# Method: Human Bone Marrow‐derived Mesenchymal Stem Cells (hBMSCs) were provided by Professor Lee's laboratory, and cells from passages four to nine were used for all experiments. hBMSCs were cultured in alpha‐minimum essential medium (Welgene, LM008‐01) supplemented with 10% Fetal Bovine Serum (FBS) (Gibco, US origin, 16000–044) and 1% penicillin/streptomycin (Gibco, 15140‐122).
# as §1, with “shaking.” for “shaking. The next day, the membrane was washed three times with TBST at 10 min intervals to remove unbound primary antibodies. The membranes were incubated with secondary antibodies (anti‐rabbit and anti‐mouse) conjugated to horseradish peroxidase (HRP) for 1 h at room temperature. The membrane was washed three times with 1X TBST at 10 min intervals to remove unbound secondary antibodies.”
# hBMSCs [1] = experiment: Alizarin Red S (ARS) staining of hBMSCs under osteogenic differentiation; assay type: cell-based, human; conditions: osteogenic differentiation conditions
# Method: To induce osteogenic differentiation, the cells were seeded in confluent plates and cultured in osteogenic induction medium the following day. The differentiation medium was prepared by adding 10 mM β‐glycerophosphate (Sigma‐Aldrich, G9422), 50 µM ascorbic acid (Sigma‐Aldrich, A4403), and 0.1 µM dexamethasone (Sigma‐Aldrich, D4902) to the culture medium. The cells were treated with MDM2 inhibitors, Nutlin‐3 (Sigma‐Aldrich, N6787) or CL144 in an osteoinductive medium and incubated for 10–14 days to induce osteogenic differentiation. The differentiation medium was changed every 2–3 days (The list of MDM2 inhibitors used is shown in Figure 1A and presented in Table S1, Supporting Information).
# Following osteogenic differentiation for the indicated number of days, the cells were fixed in 70% ethanol for 3 min at room temperature or in 4% PFA (Tech & Innovation, BPP‐9004) for 30 min at room temperature, washed with distilled water, and stained with 2% Alizarin Red S (Sigma‐Aldrich; pH 4.2, A5533) for 30 min.
# hBMSCs [2] = experiment: Calcium deposit staining (X-Rhod-1) in hBMSCs; assay type: cell-based, human; conditions: X‐Rhod‐1, p < 0.05
# Method: hBMSCs were differentiated in the presence of the 10 mM β‐glycerophosphate (Sigma‐Aldrich, G9422) and 50 µM ascorbic acid (Sigma‐Aldrich, A4403) in culture medium for 10 d. Subsequently, the cells were fixed with 4% PFA for 30 min, followed by two washes with Mg^2+‐and Ca^2+‐free dPBS (Welgene, LB‐204). To stain for calcium, X‐Rhod‐1 (Invitrogen, X14210) dye was diluted in Mg^2+‐and Ca^2+‐free dPBS at a concentration of 1 µM and incubated at room temperature in the dark for 1 h. The cells were then washed five times with Mg^2+‐and Ca^2+‐free dPBS at 10 min intervals. The samples were observed under a Cytation5 microscope (Agilent Technologies) at a wavelength of 595 nm.
# MDM2 [3] = target: T2, MDM2 (Homo sapiens, UniProt Q00987); experiment: Microscale thermophoresis (MST) binding assay; set-up: made in house; host or cells: E. coli BL21 (DE3); conditions: His-Tag MDM2, n = 3, read-out: dissociation constant (Kd)
# Target sequence in this assay (Q00987 whole entry, species assumed): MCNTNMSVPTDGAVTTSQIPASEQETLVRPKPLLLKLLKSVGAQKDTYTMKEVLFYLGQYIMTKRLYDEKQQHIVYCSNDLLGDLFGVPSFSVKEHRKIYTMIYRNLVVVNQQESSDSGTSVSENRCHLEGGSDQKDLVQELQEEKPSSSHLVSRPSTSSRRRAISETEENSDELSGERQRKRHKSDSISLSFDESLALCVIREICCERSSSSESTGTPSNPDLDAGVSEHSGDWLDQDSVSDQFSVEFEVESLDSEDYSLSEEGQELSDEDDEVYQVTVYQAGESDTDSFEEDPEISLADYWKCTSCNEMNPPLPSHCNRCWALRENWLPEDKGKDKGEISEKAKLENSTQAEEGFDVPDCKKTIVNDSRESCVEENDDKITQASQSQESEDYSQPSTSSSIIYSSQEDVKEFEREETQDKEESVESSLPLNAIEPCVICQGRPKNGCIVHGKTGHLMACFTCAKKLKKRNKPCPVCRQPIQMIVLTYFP
# Method: E. coli BL21 (DE3) competent cells transformed with pSPEL870 were used to express MDM2 protein.^[ [27] ^] The recombinant strain was cultured in 500 mL 2XYT at 37 °C until the optical density (OD600 ) reached 0.5. Protein expression was induced by adding 0.2 mM isopropyl β‐D‐1‐thiogalactopyranoside (IPTG; Bioshop, Canada) at 20 °C overnight. […] The protein was purified using Ni‐NTA resin (Qiagen, Germany), according to the manufacturer's protocol. The purified protein was buffer exchanged with phosphate‐buffered saline (PBS, pH 7.4) using a centrifugal filter unit (MWCO: 10 K; Merck Millipore, USA). The protein was stored at –20 °C in PBS with 20% glycerol and 1 mM dithiothreitol (DTT).
# The His‐Tag MDM2 protein was labeled using a His‐Tag Labeling Kit RED‐tris‐NTA second Generation (NanoTemper, MO‐L018) according to the manufacturer's instructions. […] The final mixtures were transferred to capillaries (NanoTemper, MO‐K022) and the samples were measured using a Monolith NT.115Pico (NanoTemper) instrument (auto LED power; medium MST power). […] The signals were represented as normalized changes in fluorescence (Fnorm ) upon ligand binding. Baseline‐corrected normalized fluorescence (DFnorm ) was obtained from Fnorm values using MO Affinity Analysis, and the dissociation constants (Kd ) were determined by curve fitting (variable slope model) using GraphPad Prism 10.
# MDM2 [4] = target: T2, MDM2; experiment: Immunoprecipitation of MDM2 ubiquitination in HeLa cells overexpressing MDM2 and HA-tagged ubiquitin; assay type: cell-based; set-up: host or cells: HeLa; conditions: 10 µM, within 60 min
# Method: HeLa cells were cultured in DMEM (Welgene, LM001‐05) supplemented with 10% FBS (Welgene, S001‐07). For transient transfection, the cells were seeded at ≈70% confluence. The following day, transfection was performed using Lipofectamine 3000 (Invitrogen, L3000015) for 24 h according to the manufacturer's protocol. The cells were transfected with 100 ng of EGFP‐MDM2 per well in the 96‐well plate and were transfected with 2 µg of MDM2 WT and 2 µg of HA‐ubiquitin, total 4 µg per well in the 6‐well plate.
# Hela cells (passage. 5) 7 × 10^5 cells well^−1 were seeded in a 6‐well plate and allowed to adhere overnight (o/n). The next day, WT MDM2 and HA‐ubiquitin plasmid transfection was performed using Lipofectamine 3000 for 24 h, according to the manufacturer's instructions. After transfection for 24 h, cells were treated with CL144 for different time intervals, including 15, 30, and 60 min. After drug treatment, the cells were lysed using immunoprecipitation (IP) lysis buffer (ThermoFisher, 87788) supplemented with a protease inhibitor cocktail (PIC). The cell lysates were harvested for subsequent experiments. The cell lysate was incubated with a HA‐tag primary antibody (1′Ab) at 4 °C overnight to capture the target protein complexes. The next day, the antibody–protein complexes were bound to the beads for 1 h. The beads were washed three times with IP lysis buffer to remove nonspecific binding. […]
# Target sequence in this assay (Q00987 whole entry): as the sequence (Q00987 whole entry, species assumed) above
# T1 sequence (Q13422 whole entry): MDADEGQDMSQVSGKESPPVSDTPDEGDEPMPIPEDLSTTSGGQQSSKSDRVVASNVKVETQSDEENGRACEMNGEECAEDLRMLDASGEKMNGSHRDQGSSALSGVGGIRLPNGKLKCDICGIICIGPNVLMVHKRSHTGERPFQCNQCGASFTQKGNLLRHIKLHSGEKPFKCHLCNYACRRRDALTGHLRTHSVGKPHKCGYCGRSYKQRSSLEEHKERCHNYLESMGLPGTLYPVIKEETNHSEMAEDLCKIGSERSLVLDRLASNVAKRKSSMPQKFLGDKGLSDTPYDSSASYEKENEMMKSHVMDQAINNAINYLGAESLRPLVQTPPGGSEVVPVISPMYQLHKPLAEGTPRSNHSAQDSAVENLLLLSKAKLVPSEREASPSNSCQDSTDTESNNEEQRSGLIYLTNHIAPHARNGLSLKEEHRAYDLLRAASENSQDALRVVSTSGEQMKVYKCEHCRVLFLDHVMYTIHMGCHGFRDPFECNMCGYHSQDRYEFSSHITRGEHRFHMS
compound,measurement,setting,value
COc1ccc(C2=N[C@H](c3ccc(Cl)cc3)[C@H](c3ccc(Cl)cc3)N2C(=O)N2CCN(CC(=O)NCCCCCCCCOc3cccc4c3C(=O)N(C3CCC(=O)NC3=O)C4=O)C(=O)C2)c(OC(C)C)c1 (stereo in doubt) [CL144],IKZF1 reduction,IKZF1,about 35%
same,p53 levels,p53,elevated p53 levels in a dose‐dependent manner
same,biomineralization / osteogenic potency (ARS staining),hBMSCs [1],significantly enhanced biomineralization
same,calcium deposits compared to the control group,hBMSCs [2],significantly increased
same,Kd,MDM2 [3],1120 nM
same,increase of ubiquitination level of MDM2,MDM2 [4],2.65 fold
